Converted amounts (≈) assume the structure as drawn.
Test system: Peronospora tabacina sporangia
Experiment: Inhibition of Sporangial Germination, Variant II (test 3.12)
Type: cell-based
Conditions: 1% water agar, 10^6 s/ml, 18° C., 16 hours, read-out: ED50 (the source's name)
Protocol: 3.12. Variant II In another in vitro test, the substances (10^2 -10^-8 ppm) were added to 1% water agar and poured into petri dishes. After cooling, the media were inoculated with 100 μl of a suspension of sporangia (10^6 s/ml) and incubated at 18° C. during 16 hours. The germinated sporangia were counted under the microscope.

Compound | IC50 [ng/mL]
CCCC(=O)O[C@@H]1CC(C)=C(/C=C/C(C)=O)C(C)(C)C1 [3(R)-n-butyroyloxy-β-ionone, 3(R)-butyroyloxy-β-ionone] | 2e-05 (≈ 7.18e-05 nM)
COCC(=O)O[C@@H]1CC(C)=C(/C=C/C(C)=O)C(C)(C)C1 [3(R)-methoxyacetoxy-β-ionone] | 8e-05 (≈ 0.000285 nM)
CCOCC(=O)O[C@@H]1CC(C)=C(/C=C/C(C)=O)C(C)(C)C1 [3(R)-ethoxyacetoxy-β-ionone] | 0.006 (≈ 0.0204 nM)
CC(=O)/C=C/C1=C(C)C[C@@H](OC(=O)C(C)(C)C)CC1(C)C [3(R)-pivaloyloxy-β-ionone] | 0.001 (≈ 0.00342 nM)
CC(=O)/C=C/C1=C(C)CC(OC(=O)C(C)C)CC1(C)C (stereo not drawn) [Quieson, 3-isobutyroyloxy-β-ionone, reference compound] | 0.4 (≈ 1.44 nM)
CCCCCC(=O)O[C@@H]1CC(C)=C(/C=C/C(C)=O)C(C)(C)C1 [3(R)-n-hexanoyloxy-β-ionone] | 0.05 (≈ 0.163 nM)

Test system: P. tabacina conidia
Experiment: not given
Conditions: Phytochemistry 1972, vol. 11, pp. 2055-2063; cited from earlier work

Compound | inhibition of germination
CC(=O)/C=C/C1=C(C)CC(OC(=O)C(C)C)CC1(C)C (stereo not drawn) [Quieson, 3-isobutyroyloxy-β-ionone, reference compound] | an inhibitor of the germination of P. tabacina conidia

Reference: patent US5001155A, “β-ionone derivative as antifungal agent” (University of Kentucky Research Foundation, priority 1989, dated 1991)
